Test results taken from patent publication US20250171821A1, “HIF-1 ACTIVATORS AND USES THEREOF” (Ramot at Tel-Aviv University Ltd., priority 2022, published 2025).
“Also recorded” adds a separate entry of the source.

How the values were obtained:
Bovine Dermal Fibroblast = test: Collagen-I immunofluorescence in bovine dermal fibroblasts; assay type: cell-based; conditions: 48 hours
Description: For microscopy images, cells were cultured in a 24-well plate and incubated with medium supplemented with the indicated concentrations of the treating entity (e.g., peptides or DFO) at 37° C. under 5% CO2. Cells were then washed additional three times with cold phosphate-buffered saline (PBS), following a 20 minute fixation in a 4% paraformaldehyde (PFA) in PBS and extensively washed three times with PBS to remove the PFA, followed by a 20 minute wash with blocking and penetration solution (PBS with 0.1% Triton X-100 and 2% BSA). Fixed cells were incubated with antibodies for 1 hour at 25° C., washed, and developed together with fluorescence-tagged secondary antibodies (Alexa 488 and 647, Abcam). Cell nuclei were stained with 1 mg/mL 4′,6-diamidino-2-phenylindole (DAPI Staining Solution ab228549, Abcam). Images were taken using a ZEISS LSM 900 in confocal mode, using Zen 3.1. Fluorescence readouts were obtained at ex/em of 358/461, 495/519 nm, and 652/668 nm for blue, green, and red, respectively.
Effect of Def16-EPAS1 on Collagen accumulation in Bovine Dermal Fibroblast—To test HIF mimicking peptide and its effect on Collagen accumulation in additional mammalian cells, the present inventors have examined the effect of the Def16-EPAS1 peptide on Bovine Dermal Fibroblast. […]

MG-63 cells [1] = test: Picrosirius red staining of collagen fibers in MG-63 cells; assay type: cell-based, human; conditions: 7 days, osteogenic differentiation medium plus peptide
Description: (§1) The cultivation of MG-63 was performed in α-MEM growth medium (Sartorius). Osteogenic differentiation was performed by plating 20,000 cells/well into a sterile 24-well plate. Cells were left to adhere for 1 day and then switched to the osteogenic medium consisting of a minimum essential medium alpha (α-MEM) supplemented with 10% heat-inactivated FBS, 2 mM L-glutamine, 100 U/mL penicillin, 100 μg/mL streptomycin, 50 μM ascorbate-2-phosphate, and 10 mM β-glycerophosphate. Medium was changed every 2-3 days together with peptide supplementation. Seven to twenty-eight days after induction of differentiation, the production of extracellular calcified mineral matrix was visualized by Alizarin Red staining (Sigma) and Picrosirius Red (Scytek).
To visualize the extent of ECM formation, Picrosirius red dye was used to stain Collagen-I and Collagen-III. Treated cells were fixed with 4% PFA, washed with PBS and dried at 37° C. or at room temperature (RT) for overnight incubation. Then, the cells were stained with 400 μL of Sirius Red dye (0.1% in saturated picric acid) for 1 hour with mild shaking. The stained cell layers were then extensively washed with 0.01 N HCl to remove all non-bounded dye. After rinsing, photographs were taken under confocal microscope using polarized light.
Evaluation of Collagen fibers in MG-63 cells upon Def16-EPAS1 treatment—To evaluate the variation in Collagen fiber levels between normal MG-63 cells and MG-63 cells treated with the Def16-EPAS1 peptide, cells were supplemented to a 7-day incubation period with osteogenic differentiation medium (which includes 50 μg/mL ascorbic acid and 10 mM β-glycerophosphate), along with the addition of Def16-EPAS1 peptide. Collagen fibers were highlighted/stained by Picro-Sirius Red staining according to the manufacturer's instructions (FIG. 12). The PSR staining allows to clearly distinguish between Collagen-I and III fibers in cell culture. In the evaluation of polarizing colors of collagens fibers, Collagen-I and III were polarized with 488 nm and 647 nm wavelength, respectively, and visualized with the confocal microscope.

MG-63 cells [2] = test: Alizarin Red S staining of mineralization in MG-63 cells; assay type: cell-based, human
Description: as §1
To visualize calcium deposition upon osteogenic differentiation, an Alizarin-red-S (Sigma) stock solution of 40 mM was used. Cells were washed three times with PBS and fixed in 1 mL of 4% PFA for 20 minutes at room temperature (RT). After fixation, cells were rinsed with double distilled water (DDW) and stained for 10 minutes in 1 mL Alizarin-red-S stock solution under continuous rotation. To diminish unspecific staining, cells were washed extensively three times with PBS. Stained samples were stored at 4° C. covered with PBS. […]

ischemic anastomoses = conditions: cited from earlier work
mice = conditions: after dextran sulfate sodium-induced intestinal fibrosis; cited from earlier work

Molecule	Collagen fibril morphology (Bovine Dermal Fibroblast; higher peptide concentrations)	Collagen-I levels compared to baseline of nontreated cells (Bovine Dermal Fibroblast; peptide concentration above 10 μM)	Collagen-I fibers (MG-63 cells [1])	Collagen-III fibers (MG-63 cells [1])	Collagen-I fibers (MG-63 cells [1]; listed as DEF16-EPAS1)	Collagen-III fibers (MG-63 cells [1]; listed as DEF16-EPAS1)	deposition of calcium (mineralized nodules) (MG-63 cells [2]; 5 μM or 20 μM peptide, 7 days, osteogenic differentiation medium)	mineralizing matrix formation (Alizarin Red S and Picrosirius Red) (MG-63 cells [2]; 10 μM peptide, 7, 14, 21 and 28 days, differentiation medium)	levels of collagen (ischemic anastomoses)	collagen deposition (mice)
Def16-EPAS1: GRCRGFRRRCFCTTHCELDLETLAPYIPMDGEDFQL (SEQ ID NO: 3): Def16 cell penetrating sequence fused to the EPAS1 peptide (Def16-EPAS1; MOD_RES 1 Can be FITC-labeled; MOD_RES 3 Can be FITC-labeled; MOD_RES 10 Can be FITC-labeled; MOD_RES 12 Can be FITC-labeled; MOD_RES 16..17 Can be FITC-labeled; MOD_RES 19 Can be FITC-labeled; MOD_RES 21 Can be FITC-labeled; MOD_RES 30 Can be FITC-labeled; MOD_RES 32..33 Can be FITC-labeled; MOD_RES 36 Can be FITC-labeled)	thick fibril bundles of Collagen were observed	more than 2 fold	over-production	over-production	enhanced levels	enhanced levels	strong induction of deposition of calcium; also recorded: Typical mineralized nodules were observed	form a mineralizing matrix		
COC(=O)CNC(=O)C(=O)OC [DMOG]									increased levels of collagen	significant decrease in collagen deposition
